# Reference: patent US9828360B2 (Array BioPharma Inc., priority 2012, dated 2017)
# Molecular target: TrkA (Homo sapiens, UniProt P04629)
# Test: TrkA LanthaScreen Eu Kinase Binding Assay
# Design: 6HIS tagged cytoplasmic domain from Invitrogen, Cat. No. PV3144; purchased Invitrogen PV3144
# Settings: averaged IC50 values, read-out: TrkA Enzyme IC50
# Protocol: TrkA binding activity was determined in a TrkA LanthaScreen™ Eu Kinase Binding Assay. 5 nM His-tagged recombinant human TrkA (6HIS tagged cytoplasmic domain from Invitrogen, Cat. No. PV3144) was incubated with 4 nM Alexa-Fluor® Tracer 236 (Invitrogen Cat. No. PV5592), 2 nM biotinylated anti-His (Invitrogen Cat. No. PV6090), and 2 nM europium-labeled Streptavidin (Invitrogen Cat. No. PV5899), in buffer (25 mM MOPS, pH 7.5, 5 mM MgCl2, 0.005% Triton X-100). Three fold serial dilutions of compounds of the invention in DMSO were added to a final percentage of 2% DMSO. After 60-minute incubation at 22° C., the reaction was measured using the EnVision mutlimode plate reader (PerkinElmer) via TR-FRET dual wavelength detection at […]. The percent of control was calculated using a ratiometric emission factor. The IC50 values were determined by fitting a four parameter model to the percent of control data.
# Table A provides averaged IC50 values for compounds of the invention when tested in the assay of Example A, where A represents an averaged IC50 value <100 nM; and B represents an averaged IC50 value from 100 to 1,000 nM.
# Sequence of TrkA (P04629 440-796 limits assumed): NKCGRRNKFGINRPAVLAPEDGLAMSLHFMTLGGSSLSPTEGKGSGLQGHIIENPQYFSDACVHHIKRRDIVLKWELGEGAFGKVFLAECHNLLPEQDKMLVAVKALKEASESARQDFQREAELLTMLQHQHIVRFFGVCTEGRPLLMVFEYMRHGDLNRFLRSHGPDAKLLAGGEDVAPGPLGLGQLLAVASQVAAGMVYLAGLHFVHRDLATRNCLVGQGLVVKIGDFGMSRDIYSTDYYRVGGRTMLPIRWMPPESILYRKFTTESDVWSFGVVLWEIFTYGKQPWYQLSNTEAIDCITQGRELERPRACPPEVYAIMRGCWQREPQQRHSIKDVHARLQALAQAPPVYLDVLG
row,Compound,IC50 [µM]
1,"COCCN1C[C@@H](NC(=O)Nc2sc(C(C)C)nc2-c2ccccc2)[C@H](c2ccc(F)c(F)c2)C1 [Example 47, 1-((3S,4R)-4-(3,4-difluorophenyl)-1-(2-methoxyethyl)pyrrolidin-3-yl)-3-(2-isopropyl-4-phenylthiazol-5-yl)urea]",< 0.1
2,"COCCN1C[C@@H](NC(=O)Nc2ccc(-c3ccccc3)nc2C)[C@H](c2ccccc2)C1 [Example 8, 1-((3S,4R)-1-(2-methoxyethyl)-4-phenylpyrrolidin-3-yl)-3-(2-methyl-6-phenylpyridin-3-yl)urea]",0.1 to 1
3,"COCCN1C[C@@H](NC(=O)Nc2ccc(C#N)nc2-c2ccccc2)[C@H](c2ccc(F)c(F)c2)C1 [Example 24, 1-(6-cyano-2-phenylpyridin-3-yl)-3-((3S,4R)-4-(3,4-difluorophenyl)-1-(2-methoxyethyl)pyrrolidin-3-yl)urea]",< 0.1
4,"COCCN1C[C@@H](NC(=O)Nc2cc(S(C)(=O)=O)cnc2-c2ccccc2)[C@H](c2ccccc2)C1 (relative stereo) [Example 4, 1-(trans-1-(2-methoxyethyl)-4-phenylpyrrolidin-3-yl)-3-(5-(methylsulfonyl)-2-phenylpyridin-3-yl)urea]",0.1 to 1
5,"COCCN1C[C@@H](NC(=O)Nc2ccn(C)c(=O)c2-c2ccccc2)[C@H](c2ccc(F)c(F)c2)C1 [Example 33, 1-((3S,4R)-4-(3,4-difluorophenyl)-1-(2-methoxyethyl)pyrrolidin-3-yl)-3-(1-methyl-2-oxo-3-phenyl-1,2-dihydropyridin-4-yl)urea]",0.1 to 1
6,"COCCOc1ccc(NC(=O)N[C@@H]2CN(CCOC)C[C@H]2c2ccc(F)c(F)c2)c(-c2ccccc2)n1 [Example 27, 1-((3S,4R)-4-(3,4-difluorophenyl)-1-(2-methoxyethyl)pyrrolidin-3-yl)-3-(6-(2-methoxyethoxy)-2-phenylpyridin-3-yl)urea]",< 0.1
7,"COCCN1C[C@@H](NC(=O)Nc2ccc(-c3ccc(S(C)(=O)=O)cc3)nc2C)[C@H](c2ccc(F)c(F)c2)C1 [Example 17, 1-((3S,4R)-4-(3,4-difluorophenyl)-1-(2-methoxyethyl)pyrrolidin-3-yl)-3-(2-methyl-6-(4-(methylsulfonyl)phenyl)pyridin-3-yl)urea]",0.1 to 1
8,"COCCN1C[C@@H](NC(=O)Nc2sc(C(C)(C)O)nc2-c2ccccc2)[C@H](c2ccc(F)c(F)c2)C1 [Example 51, 1-((3S,4R)-4-(3,4-difluorophenyl)-1-(2-methoxyethyl)pyrrolidin-3-yl)-3-(2-(2-hydroxypropan-2-yl)-4-phenylthiazol-5-yl)urea]",< 0.1
9,"COCCN1C[C@@H](NC(=O)Nc2cc(Cl)cnc2-c2ccccc2)[C@H](c2ccccc2)C1 (relative stereo) [Example 2, 1-(5-chloro-2-phenylpyridin-3-yl)-3-(trans-1-(2-methoxyethyl)-4-phenylpyrrolidin-3-yl)urea]",< 0.1
10,"COCCN1C[C@@H](NC(=O)Nc2cc(OC)cnc2-c2ccccc2)[C@H](c2ccc(F)c(F)c2)C1 [Example 26, 1-((3S,4R)-4-(3,4-difluorophenyl)-1-(2-methoxyethyl)pyrrolidin-3-yl)-3-(5-methoxy-2-phenylpyridin-3-yl)urea]",< 0.1
11,"COCCN1C[C@@H](NC(=O)Nc2cc(Br)cnc2-c2ccccc2)[C@H](c2ccc(F)c(F)c2)C1 [Example 6, 1-(5-bromo-2-phenylpyridin-3-yl)-3-((3S,4R)-4-(3,4-difluorophenyl)-1-(2-methoxyethyl)pyrrolidin-3-yl)urea]",< 0.1
12,"COCCN1C[C@@H](NC(=O)Nc2ccc(S(=O)(=O)C3CC3)nc2-c2ccccc2)[C@H](c2ccc(F)c(F)c2)C1 [Example 22, 1-(6-(cyclopropylsulfonyl)-2-phenylpyridin-3-yl)-3-((3S,4R)-4-(3,4-difluorophenyl)-1-(2-methoxyethyl)pyrrolidin-3-yl)urea]",< 0.1
13,"COCCN1C[C@@H](NC(=O)Nc2cc(-c3ccccc3)cnc2-c2ccccc2)[C@H](c2ccccc2)C1 [Example 7, 1-(2,5-diphenylpyridin-3-yl)-3-((3S,4R)-1-(2-methoxyethyl)-4-phenylpyrrolidin-3-yl)urea]",< 0.1
14,"COCCN1C[C@@H](NC(=O)Nc2nc(C)nn2-c2ccccc2)[C@H](c2ccc(F)c(F)c2)C1 [Example 53, 1-((3S,4R)-4-(3,4-difluorophenyl)-1-(2-methoxyethyl)pyrrolidin-3-yl)-3-(3-methyl-1-phenyl-1H-1,2,4-triazol-5-yl)urea]",< 0.1
15,"COCCN1C[C@@H](NC(=O)Nc2cc(-c3ccccc3)cnc2C)[C@H](c2ccc(F)c(F)c2)C1 [Example 10, 1-((3S,4R)-4-(3,4-difluorophenyl)-1-(2-methoxyethyl)pyrrolidin-3-yl)-3-(2-methyl-5-phenylpyridin-3-yl)urea]",0.1 to 1
16,"COCCN1C[C@@H](NC(=O)Nc2oc(C(C)C)nc2-c2ccccc2)[C@H](c2ccc(F)c(F)c2)C1 [Example 43, 1-((3S,4R)-4-(3,4-difluorophenyl)-1-(2-methoxyethyl)pyrrolidin-3-yl)-3-(2-isopropyl-4-phenyloxazol-5-yl)urea]",< 0.1
17,"COCCN1C[C@@H](NC(=O)Nc2cc(-c3cccnc3)cnc2C)[C@H](c2ccc(F)c(F)c2)C1 [Example 15, 1-((3S,4R)-4-(3,4-difluorophenyl)-1-(2-methoxyethyl)pyrrolidin-3-yl)-3-(6-methyl-[3,3′-bipyridin]-5-yl)urea]",0.1 to 1
18,"CCc1ccc(NC(=O)N[C@@H]2CN(CCOC)C[C@H]2c2ccc(F)c(F)c2)c(-c2ccccc2)n1 [Example 28, 1-((3S,4R)-4-(3,4-difluorophenyl)-1-(2-methoxyethyl)pyrrolidin-3-yl)-3-(6-ethyl-2-phenylpyridin-3-yl)urea]",< 0.1
19,"COCCN1C[C@@H](NC(=O)Nc2c(-c3ccccc3)c(=O)n(C)n2C)[C@H](c2ccc(F)c(F)c2)C1 [Example 39, 1-((3S,4R)-4-(3,4-difluorophenyl)-1-(2-methoxyethyl)pyrrolidin-3-yl)-3-(1,2-dimethyl-5-oxo-4-phenyl-2,5-dihydro-1H-pyrazol-3-yl)urea]",< 0.1
20,"COCCN1C[C@@H](NC(=O)Nc2ccc(OC)nc2-c2ccccc2)[C@H](c2ccc(F)c(F)c2)C1 [Example 16, 1-((3S,4R)-4-(3,4-difluorophenyl)-1-(2-methoxyethyl)pyrrolidin-3-yl)-3-(6-methoxy-2-phenylpyridin-3-yl)urea]",< 0.1
21,"COCCN1C[C@@H](NC(=O)Nc2cc(C)cnc2-c2ccccc2)[C@H](c2ccc(F)c(F)c2)C1 [Example 30, 1-((3S,4R)-4-(3,4-difluorophenyl)-1-(2-methoxyethyl)pyrrolidin-3-yl)-3-(5-methyl-2-phenylpyridin-3-yl)urea]",< 0.1
22,"COCCN1C[C@@H](NC(=O)Nc2oc(C(C)C)nc2-c2ccccc2)[C@H](c2ccccc2)C1 [Example 44, 11-(2-isopropyl-4-phenyloxazol-5-yl)-3-((3S,4R)-1-(2-methoxyethyl)-4-phenylpyrrolidin-3-yl)urea]",0.1 to 1
